Measured values: patent US20190105367A1, “ANTIMICROBIAL 4-OXOQUINOLIZINES” (Emergent Product Development Gaithersburg Inc., priority 2011, published 2019)
Values after ≈ are worked out from the molar mass of the structure shown. Like-named read-outs stand apart in the source and are kept apart here.

Legend:
A. baumannii A14 [1] = assay: MIC without and with sub-inhibitory polymyxin B (Example 4); format: cell-based, Acinetobacter baumannii; details: 2nd experiment
A. baumannii A472 [2] = assay: as above; format: cell-based, Acinetobacter baumannii; details: for MIC: Acinetobacter baumannii
A. baumannii A472 [3] = assay: Preliminary MBC without and with sub-inhibitory polymyxin B (Example 4); format: cell-based, Acinetobacter baumannii; details: Acinetobacter baumannii, preliminary MBC
A. baumannii A329 [4] = assay: as above; format: cell-based, Acinetobacter baumannii; details: Acinetobacter baumannii, A329, A. baumannii A329, +0.06 μg/ml PB, 2nd experiment, read-out: MBC
A. baumannii A401 [5] = assay: as above; format: cell-based, Acinetobacter baumannii; details: Acinetobacter baumannii
A. baumannii NCTC 13301 [6] = assay: MIC without and with sub-inhibitory polymyxin B (Example 4); format: cell-based, Acinetobacter baumannii
A. baumannii A473 = assay: Preliminary MBC without and with sub-inhibitory polymyxin B (Example 4); format: cell-based, Acinetobacter baumannii; details: Acinetobacter baumannii, A473, A. baumannii A473, +0.06 μg/ml PB, 2nd experiment, read-out: MBC
Method in brief: (§1)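 Read-out: the minimum concentration at which colonies were reduced by ca. 90% relative to positive control, usually seen as isolated colonies or a clear plate. Plates had been kept 18-20 hours at 37° C beforehand.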

A. baumannii NCTC 13301 [7] = assay: as above; format: cell-based, Acinetobacter baumannii; details: Acinetobacter baumannii
Method in brief: as §1

A. baumannii A390 [8] = assay: as above; format: cell-based, Acinetobacter baumannii; details: Acinetobacter baumannii, A390, A. baumannii A390, +0.06 μg/ml PB, 2nd experiment, read-out: MBC
Method in brief: as §1

A. baumannii A14 [9] = assay: as above; format: cell-based, Acinetobacter baumannii; details: 2nd experiment
Method in brief: as §1

A. baumannii J2 [10] = assay: MIC without and with sub-inhibitory polymyxin B (Example 4); format: cell-based, Acinetobacter baumannii
[11] = test system: Acinetobacter sp. (H064200250); assay: as above; format: cell-based; details: for MIC: Acinetobacter
A. baumannii A329 [12] = assay: as above; format: cell-based, Acinetobacter baumannii; details: +0.06 μg/ml PB, 2nd experiment
A. baumannii NCTC 13301 [13] = assay: as above; format: cell-based, Acinetobacter baumannii; details: +[…] PB, 2nd experiment
A. baumannii ATCC 19606 [14] = assay: as above; format: cell-based, Acinetobacter baumannii; details: for MIC without PB/MIC + PB: A. baumannii ATCC 19606; for MIC: Acinetobacter baumannii
A. baumannii A14 [15] = assay: as above; format: cell-based, Acinetobacter baumannii; details: 1st experiment
A. baumannii A14 [16] = assay: Preliminary MBC without and with sub-inhibitory polymyxin B (Example 4); format: cell-based, Acinetobacter baumannii; details: A. baumannii A14; +0.06 μg/ml polymyxin B; preliminary MBC; 1st experiment
A. baumannii J2 [17] = assay: as above; format: cell-based, Acinetobacter baumannii; details: Acinetobacter baumannii, preliminary MBC
A. baumannii A489 [18] = assay: as above; format: cell-based, Acinetobacter baumannii; details: Acinetobacter baumannii, preliminary MBC
A. baumannii A390 [19] = assay: MIC without and with sub-inhibitory polymyxin B (Example 4); format: cell-based, Acinetobacter baumannii; details: +0.06 μg/ml PB, 2nd experiment
A. baumannii ATCC 19606 [20] = assay: Preliminary MBC without and with sub-inhibitory polymyxin B (Example 4); format: cell-based, Acinetobacter baumannii; details: Acinetobacter baumannii
A. baumannii A489 [21] = assay: MIC without and with sub-inhibitory polymyxin B (Example 4); format: cell-based, Acinetobacter baumannii; details: for MIC without PB/MIC + PB: A. baumannii A489; for MIC: Acinetobacter baumannii
A. baumannii A401 [22] = assay: as above; format: cell-based, Acinetobacter baumannii; details: for MIC: Acinetobacter baumannii
[23] = test system: strains of A. baumannii and one strain of Acinetobacter sp.; assay: MIC with sub-inhibitory concentrations (0.25x MIC) of polymyxin B, panel of Acinetobacter strains (Example 4); format: cell-based; details: 2nd experiment; 0.06 μg/ml polymyxin B; all strains except the ATCC strain
[24] = A. baumannii A14, +0.06 μg/ml PB

SMILES: Cc1c(-c2ccc(N)cc2)ccn2c(=O)c(C(=O)O)cc(C3CC3)c12 [Compound 8, 8-(4-amino-phenyl)-1-cyclopropyl-9-methyl-4-oxo-quinolizine-3-carboxylic acid]
- MIC (A. baumannii A14 [1]; [24]): 0.5 µg/mL (≈ 1.5 µM)
- MIC without PB/MIC + PB (A. baumannii A14 [1]; [24]): 16
- MIC (A. baumannii A14 [1]; Acinetobacter baumannii, A14, A. baumannii A14, without PB, read-out: MIC): 8 µg/mL (≈ 23.9 µM)
- MIC without PB/MIC + PB (A. baumannii A472 [2]; A. baumannii A472, ratio, PB […], 1st experiment): ≥128
- MIC (A. baumannii A472 [2]; A472, A. baumannii A472, +[…] PB, 2nd experiment, read-out: MIC): 0.06 µg/mL (≈ 0.179 µM)
- MIC (A. baumannii A472 [2]; A472, read-out: MIC +[…] PB, A. baumannii A472, +[…] polymyxin B, 1st experiment): ≤ 0.03 µg/mL
- MBC (A. baumannii A472 [3]; A472, A. baumannii A472, +[…] PB, 2nd experiment, read-out: MBC): 0.06 µg/mL (≈ 0.179 µM)
- MBC (A. baumannii A472 [3]; A472, read-out: MBC +[…] PB, A. baumannii A472, +[…] polymyxin B, 1st experiment): ≤ 0.03 µg/mL
- MBC (A. baumannii A329 [4]): 2 µg/mL (≈ 5.98 µM)
- MBC (A. baumannii A401 [5]; A401, A baumannii A 401, +0.06 μg/ml PB, 2nd experiment, read-out: MBC): 0.25 µg/mL (≈ 0.748 µM)
- MBC (A. baumannii A401 [5]; A401, read-out: MBC +0.06 μg/ml PB, A baumannii A 401, +0.06 μg/ml polymyxin B, 1st experiment): ≤ 0.03 µg/mL
- MIC without PB/MIC + PB (A. baumannii NCTC 13301 [6]; A. baumannii NCTC 13301, ratio, PB […], 1st experiment): 64
- MIC (A. baumannii NCTC 13301 [6]; Acinetobacter baumannii, NCTC13301, read-out: MIC +[…] PB): 0.5 µg/mL (≈ 1.5 µM)
- MBC (A. baumannii A473): 0.5 µg/mL (≈ 1.5 µM)
- MBC (A. baumannii NCTC 13301 [7]; NCTC13301, A. baumannii NCTC 13301, +[…] PB, preliminary MBC, 2nd experiment, read-out: MBC): 0.5 µg/mL (≈ 1.5 µM)
- MBC (A. baumannii NCTC 13301 [7]; NCTC13301, read-out: MBC +[…] PB): 1 µg/mL (≈ 2.99 µM)
- MBC (A. baumannii A390 [8]): 0.5 µg/mL (≈ 1.5 µM)
- MBC (A. baumannii A14 [9]; [24]): 0.5 µg/mL (≈ 1.5 µM)
- MBC (A. baumannii A14 [9]; Acinetobacter baumannii, A14, A. baumannii A14, without PB, read-out: MBC): 16 µg/mL (≈ 47.9 µM)
- MIC without PB/MIC + PB (A. baumannii J2 [10]; A. baumannii J2, +[…] PB, 2nd experiment): ≥128
- MIC +[…] PB (A. baumannii J2 [10]; A. baumannii J2, +[…] polymyxin B, 1st experiment): 0.125 µg/mL (≈ 0.374 µM)
- MIC without PB/MIC + PB (A. baumannii J2 [10]; A. baumannii J2, ratio, PB […], 1st experiment): 64
- MIC (A. baumannii J2 [10]; Acinetobacter baumannii, J2, A. baumannii J2, +[…] PB, 2nd experiment, read-out: MIC): ≤ 0.03 µg/mL
- MIC without PB/MIC + PB ([11]; Acinetobacter spp. H064200250 (OXA51), +[…] PB, 2nd experiment): 32
- MIC without PB/MIC + PB ([11]; Acinetobacter spp. H064200250, ratio, PB […], 1st experiment): 32
- MIC ([11]; Acinetobacter spp. H064200250 (OXA51), +[…] PB, 2nd experiment, read-out: MIC): 0.125 µg/mL (≈ 0.374 µM)
- MIC ([11]; read-out: MIC +[…] PB, Acinetobacter spp. H064200250, +[…] polymyxin B, 1st experiment): 0.06 µg/mL (≈ 0.179 µM)
- MIC without PB/MIC + PB (A. baumannii A329 [12]; A. baumannii A329): 4
- MIC (A. baumannii A329 [12]; Acinetobacter baumannii, A329, A. baumannii A329, read-out: MIC): 2 µg/mL (≈ 5.98 µM)
- MIC without PB/MIC + PB (A. baumannii NCTC 13301 [13]; A. baumannii NCTC 13301): 32
- MIC (A. baumannii NCTC 13301 [13]; Acinetobacter baumannii, NCTC13301, A. baumannii NCTC 13301, read-out: MIC): 0.5 µg/mL (≈ 1.5 µM)
- MIC without PB/MIC + PB (A. baumannii ATCC 19606 [14]; +0.06 μg/ml PB, 2nd experiment): ≥8
- MIC without PB/MIC + PB (A. baumannii ATCC 19606 [14]; ratio, PB 0.06 μg/ml, 1st experiment): ≥32
- MIC (A. baumannii ATCC 19606 [14]; ATCC19606, A. baumannii ATCC 19606, +0.06 μg/ml PB, 2nd experiment, read-out: MIC): ≤ 0.03 µg/mL
- MIC (A. baumannii ATCC 19606 [14]; ATCC19606, read-out: MIC +0.06 μg/ml PB, A. baumannii ATCC 19606, +0.06 μg/ml polymyxin B, 1st experiment): ≤ 0.03 µg/mL
- MIC +0.06 μg/ml PB (A. baumannii A14 [15]; +0.06 μg/ml polymyxin B): 1 µg/mL
- MIC without PB/MIC + PB (A. baumannii A14 [15]; ratio, PB 0.06 μg/ml): 32
- MBC +0.06 μg/ml PB (A. baumannii A14 [16]): 1 µg/mL
- MBC (A. baumannii J2 [17]; J2, A. baumannii J2, +[…] PB, 2nd experiment, read-out: MBC): ≤ 0.03 µg/mL
- MBC (A. baumannii J2 [17]; J2, read-out: MBC +[…] PB, A. baumannii J2, +[…] polymyxin B, 1st experiment): 0.125 µg/mL (≈ 0.374 µM)
- MBC (A. baumannii A489 [18]; A489, A. baumannii A489, +[…] PB, 2nd experiment, read-out: MBC): ≤ 0.03 µg/mL
- MBC (A. baumannii A489 [18]; A489, read-out: MBC +[…] PB, A. baumannii A489, +[…] polymyxin B, 1st experiment): ≤ 0.03 µg/mL
- MIC without PB/MIC + PB (A. baumannii A390 [19]; A. baumannii A390): 32
- MIC (A. baumannii A390 [19]; Acinetobacter baumannii, A390, A. baumannii A390, read-out: MIC): 0.5 µg/mL (≈ 1.5 µM)
- MBC (A. baumannii ATCC 19606 [20]; ATCC19606, A. baumannii ATCC 19606, +0.06 μg/ml PB, 2nd experiment, read-out: MBC): ≤ 0.03 µg/mL
- MBC (A. baumannii ATCC 19606 [20]; ATCC19606, read-out: MBC +0.06 μg/ml PB, A. baumannii ATCC 19606, +0.06 μg/ml polymyxin B, 1st experiment): ≤ 0.03 µg/mL
- MIC without PB/MIC + PB (A. baumannii A489 [21]; +[…] PB, 2nd experiment): ≥256
- MIC without PB/MIC + PB (A. baumannii A489 [21]; ratio, PB […], 1st experiment): ≥64
- MIC (A. baumannii A489 [21]; A489, A. baumannii A489, +[…] PB, 2nd experiment, read-out: MIC): ≤ 0.03 µg/mL
- MIC (A. baumannii A489 [21]; A489, read-out: MIC +[…] PB, A. baumannii A489, +[…] polymyxin B, 1st experiment): ≤ 0.03 µg/mL
- MIC without PB/MIC + PB (A. baumannii A401 [22]; A baumannii A 401, ratio, PB 0.06 μg/ml, 1st experiment): ≥1024
- MIC (A. baumannii A401 [22]; A401, A baumannii A 401, +0.06 μg/ml PB, 2nd experiment, read-out: MIC): 0.25 µg/mL (≈ 0.748 µM)
- MIC (A. baumannii A401 [22]; A401, read-out: MIC +0.06 μg/ml PB, A baumannii A 401, +0.06 μg/ml polymyxin B, 1st experiment): ≤ 0.03 µg/mL
- MIC range with PB (0.25x MIC) Oct. 14, 2008 n = 11 [23]: ≤0.03 to 8 µg/mL
